Columns and labels:
[1] = Qualitative solubility comparison of monomeric photoinitiators; assay type: physicochemical; details: photoinitiator monomer; concentration and temperature printed in the cell
Experimental: 100 mg of photoinitiator monomer sample was placed in a vial and appropriate amount of solvent was added. The vial was stirred at ambient temperature (20° C.) overnight or warmed with a hot air gun to 60° C. for 10 minutes. The qualitative solubility of the sample was then judged based on residual undissolved material in the vial.

SMILES	UV absorption wavelength (350-400 nm band region) [nm]	E1^1 (extinction coefficient of absorption) (at the stated absorption wavelength)	water solubility [1]
CCCOc1ccc(Cl)c2c(=O)c3ccccc3sc12 [1-chloro-4-propoxy thioxanthone]	387	175	
O=C(c1ccccc1)c1ccc(OCCCN(CCO)CCO)cc1 [Preparatory Example 1, 4-{3-[bis(2-hydroxyethyl)amino]propoxy}benzophenone]			sparingly soluble at 100 °C
O=c1c2ccccc2sc2c(OCCCN(CCO)CCO)ccc(Cl)c12 [Preparatory Example 2, 4-{3-[bis(2-hydroxyethyl)amino]propoxy}-1-chloro-9H-thioxanthen-9-one]			sparingly soluble at 100 °C

Reference: US10040893B2, “Polymeric photoinitiators and photoinitiator monomers” (Coloplast A/S, priority 2012, dated 2018)
